# Laboratory results taken from patent US7425640B2, “Substituted 5-carboxyamide pyrazoles and [1,2,4]triazoles as antiviral agents” (priority 2004, dated 2008).
# Target: HCV RNA-dependent RNA polymerase NS5B (Δ21) (Hepatitis C virus genotype 1b, UniProt P26663)
# Assay: Assay for HCV RNA-dependent RNA polymerase activity (SPA, [3H]-GTP incorporation)
# Type: biochemical
# Settings: Δ21 Activity (IC50 μM), 50 nM NS5B (Δ21), class symbols
# Method: Inhibitory activity of the present compounds against HCV RNA-dependent RNA polymerase was assayed according to the methods disclosed in United States Patent Application US2004/038993, content of which is incorporated herein by reference; and those described in Ferrari, E.; Wright-Minogue, J.; Fang, J. W. S.; Baroudy, B. M.; Lau, J. Y. N.; Hong, Z. J. Virol. 1999, 73, 1649.
# Briefly, 50 μl reactions containing 20 mM HEPES (pH 7.3), 7.5 mM DTT, 20 units/ml RNasIN, 0.5 μg/ml biotinylated oligoG12, 5 μg/ml polyC, 5 μM GTP, 20 μCi/ml [^3H]-GTP, 10 mM MgCl2, 60 mM NaCl, 100 μg/ml BSA, and 50 nM NS5B (Δ21) were incubated at room temperature for three hours in 96-well plates with or without test compounds. Assay was terminated by the addition of 50 μl 10 mg/ml streptavidin-coated SPA beads supplemented with 100 mM EDTA, and the incorporation of labeled GTP determined by a TopCount Scintillation Counter. IC50 values were calculated from single experiments using 11 serial 2-fold dilutions (0.05-50 μM), and data were considered reliable only when the IC50 value of a positive internal control was within standard deviation range.
# Sequence of HCV RNA-dependent RNA polymerase NS5B (Δ21) (P26663 2420-2989, stated change not applied): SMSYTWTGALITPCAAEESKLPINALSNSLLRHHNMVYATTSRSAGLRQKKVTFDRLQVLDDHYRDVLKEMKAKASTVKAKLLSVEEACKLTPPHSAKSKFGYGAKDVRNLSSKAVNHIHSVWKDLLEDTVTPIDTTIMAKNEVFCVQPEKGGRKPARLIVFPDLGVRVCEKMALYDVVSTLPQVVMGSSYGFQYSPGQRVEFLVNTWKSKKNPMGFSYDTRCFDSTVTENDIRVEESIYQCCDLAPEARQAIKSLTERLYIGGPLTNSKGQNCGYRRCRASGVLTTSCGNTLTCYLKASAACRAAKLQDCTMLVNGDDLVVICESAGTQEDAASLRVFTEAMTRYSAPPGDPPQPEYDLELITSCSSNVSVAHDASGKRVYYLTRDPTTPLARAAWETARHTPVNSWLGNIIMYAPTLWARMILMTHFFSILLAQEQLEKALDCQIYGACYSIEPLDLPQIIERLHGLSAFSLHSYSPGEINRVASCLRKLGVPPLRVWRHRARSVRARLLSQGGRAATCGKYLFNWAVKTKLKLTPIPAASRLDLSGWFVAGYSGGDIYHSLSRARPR
row,Compound,IC50 [µM]
1,"O=C(Cn1nc(-c2nnn[nH]2)cc1C(=O)N[C@H]1CCCC[C@@H]1OCc1ccccc1)N[C@H]1CCCC[C@@H]1OCc1ccccc1 (stereo in doubt) [Compound 18, 2-[(2-benzyloxy-cyclohexylcarbamoyl)-methyl]-5-(1H-tetrazol-5-yl)-2H-pyrazole-3-carboxylic acid (2-benzyloxy-cyclohexyl)-amide]",0.05 to 0.1
2,"N#Cc1cc(C(=O)N[C@H]2CCCC[C@@H]2OCc2ccccc2)n(CC(=O)N[C@H]2CCCC[C@@H]2OCc2ccccc2)n1 (stereo in doubt) [Compound 187, 2-[(2-benzyloxy-cyclohexylcarbamoyl)-methyl]-5-cyano-2H-pyrazole-3-carboxylic acid (2-benzyloxy-cyclohexyl)-amide]",> 1
3,Cc1ccc(OCc2ccccc2)c(NC(=O)c2cc(-c3nnn[nH]3)nn2CC(=O)N[C@H]2CCCC[C@@H]2OCc2ccccc2)c1 [Compound 1],< 0.05
4,Cc1ccc(OCC2CCCC2)c(NC(=O)c2cc(C(=O)O)nn2CC(=O)N[C@H]2CCCC[C@@H]2OCc2ccccc2)c1 [Compound 2],< 0.05
5,O=C(Cn1nc(C(=O)O)cc1C(=O)Nc1cc(Cl)ccc1OCC1CCCCC1)N[C@H]1CCCC[C@@H]1OCc1ccccc1 [Compound 3],< 0.05
6,Cc1ccc(OCC2CCCCC2)c(NC(=O)c2cc(C(=O)NC#N)nn2CC(=O)N[C@H]2CCCC[C@@H]2OCc2ccccc2)c1 [Compound 4],< 0.05
7,Cc1ccc(OCC2CCCCC2)c(NC(=O)c2cc(C(=O)O)nn2CC(=O)N[C@H]2CCCC[C@@H]2OCc2ccccc2)c1 [Compound 5],< 0.05
8,N#CNC(=O)c1cc(C(=O)Nc2ccccc2OCc2ccccc2)n(CC(=O)N[C@H]2CCCC[C@@H]2OCc2ccccc2)n1 [Compound 6],< 0.05
9,C[C@@H](NC(=O)c1cc(C(=O)N[C@H]2CCCC[C@@H]2OCc2ccccc2)n(CC(=O)N[C@H]2CCCC[C@@H]2OCc2ccccc2)n1)c1cccc2ccccc12 [Compound 7],< 0.05
10,Cc1ccc(OCc2ccsc2)c(NC(=O)c2cc(C(=O)O)nn2CC(=O)N[C@H]2CCCC[C@@H]2OCc2ccccc2)c1 [Compound 8],< 0.05
11,Cc1ccc(OCC2CCC2)c(NC(=O)c2cc(C(=O)O)nn2CC(=O)N[C@H]2CCCC[C@@H]2OCc2ccccc2)c1 [Compound 9],< 0.05
12,O=C(Cn1nc(C(=O)O)cc1C(=O)Nc1ccc(F)cc1OCC1CCCCC1)N[C@H]1CCCC[C@@H]1OCc1ccccc1 [Compound 10],< 0.05
13,O=C(Cn1nc(NS(=O)(=O)c2ccc(Cl)cc2)cc1C(=O)N[C@H]1CCCC[C@@H]1OCc1ccccc1)N[C@H]1CCCC[C@@H]1OCc1ccccc1 [Compound 11],< 0.05
14,O=C(Cn1nc(C(=O)O)cc1C(=O)Nc1cc(Br)ccc1OCC1CCCCC1)N[C@H]1CCCC[C@@H]1OCc1ccccc1 [Compound 12],< 0.05
15,O=C(Cn1nc(NS(=O)(=O)c2ccc(Br)cc2)cc1C(=O)N[C@H]1CCCC[C@@H]1OCc1ccccc1)N[C@H]1CCCC[C@@H]1OCc1ccccc1 [Compound 13],< 0.05
16,O=C(Cn1nc(C(=O)O)cc1C(=O)Nc1cc(C(F)(F)F)ccc1OCc1ccccc1)N[C@H]1CCCC[C@@H]1OCc1ccccc1 [Compound 14],< 0.05
17,N#CNC(=O)c1cc(C(=O)N[C@H]2CCCC[C@@H]2OCc2ccccc2)n(CC(=O)N[C@H]2CCCC[C@@H]2OCc2ccccc2)n1 [Compound 15],< 0.05
18,COc1cccc(NC(=O)c2cc(C(=O)N[C@H]3CCCC[C@@H]3OCc3ccccc3)n(CC(=O)N[C@H]3CCCC[C@@H]3OCc3ccccc3)n2)c1 [Compound 16],< 0.05
19,O=C(Cn1nc(NS(=O)(=O)c2ccc(Br)c(C(=O)O)c2)cc1C(=O)N[C@H]1CCCC[C@@H]1OCc1ccccc1)N[C@H]1CCCC[C@@H]1OCc1ccccc1 [Compound 17],< 0.05
20,O=C(Cn1nc(NS(=O)(=O)c2ccc(I)cc2)cc1C(=O)N[C@H]1CCCC[C@@H]1OCc1ccccc1)N[C@H]1CCCC[C@@H]1OCc1ccccc1 [Compound 19],0.05 to 0.1
21,O=C(Cn1nc(C(=O)Nc2nnn[nH]2)cc1C(=O)Nc1ccccc1OCc1ccccc1)N[C@H]1CCCC[C@@H]1OCc1ccccc1 [Compound 20],0.05 to 0.1
22,O=C(Cn1nc(C(=O)NCc2cccc3ccccc23)cc1C(=O)N[C@H]1CCCC[C@@H]1OCc1ccccc1)N[C@H]1CCCC[C@@H]1OCc1ccccc1 [Compound 22],0.05 to 0.1
23,Cc1cc(Oc2ccccc2NC(=O)Cn2nc(C(=O)O)cc2C(=O)N[C@H]2CCCC[C@@H]2OCc2ccccc2)ccc1Cl [Compound 23],0.05 to 0.1
24,Cc1ccc(OCc2ccccc2)c(NC(=O)c2nc(C(=O)O)nn2CC(=O)N[C@H]2CCCC[C@@H]2OCc2ccccc2)c1 [Compound 24],0.05 to 0.1

row,Compound,IC50 [µM]
1,O=C(Cn1nc(-c2nnn[nH]2)cc1C(=O)Nc1ccccc1OCc1ccccc1)N[C@H]1CCCC[C@@H]1OCc1ccccc1 [Compound 25],0.05 to 0.1
2,O=C(Cn1nc(NS(=O)(=O)C(F)(F)F)cc1C(=O)N[C@H]1CCCC[C@@H]1OCc1ccccc1)N[C@H]1CCCC[C@@H]1OCc1ccccc1 [Compound 26],0.05 to 0.1
3,C[C@H](NC(=O)c1cc(C(=O)N[C@H]2CCCC[C@@H]2OCc2ccccc2)n(CC(=O)N[C@H]2CCCC[C@@H]2OCc2ccccc2)n1)c1cccc2ccccc12 [Compound 27],0.05 to 0.1
4,COc1ccc(CNC(=O)c2cc(C(=O)N[C@H]3CCCC[C@@H]3OCc3ccccc3)n(CC(=O)N[C@H]3CCCC[C@@H]3OCc3ccccc3)n2)c(OC)c1 [Compound 28],0.05 to 0.1
5,COc1ccc(NC(=O)c2cc(C(=O)Nc3ccccc3OCc3ccccc3)n(CC(=O)N[C@H]3CCCC[C@@H]3OCc3ccccc3)n2)cc1 [Compound 29],0.05 to 0.1
6,O=C(Cn1nc(C(=O)O)cc1C(=O)Nc1ccc(F)cc1OCC1CCCCC1)N[C@H]1CCCC[C@@H]1OCc1ccccc1 [Compound 30],0.05 to 0.1
7,O=C(Cn1nc(NS(=O)(=O)c2cccc(F)c2)cc1C(=O)N[C@H]1CCCC[C@@H]1OCc1ccccc1)N[C@H]1CCCC[C@@H]1OCc1ccccc1 [Compound 31],0.05 to 0.1
8,O=C(Cn1nc(NS(=O)(=O)c2ccccc2Br)cc1C(=O)N[C@H]1CCCC[C@@H]1OCc1ccccc1)N[C@H]1CCCC[C@@H]1OCc1ccccc1 [Compound 32],0.05 to 0.1
9,O=C(Cn1nc(NS(=O)(=O)c2ccc3ccccc3c2)cc1C(=O)N[C@H]1CCCC[C@@H]1OCc1ccccc1)N[C@H]1CCCC[C@@H]1OCc1ccccc1 [Compound 33],0.05 to 0.1
10,Cc1ccc(OCC2CCCC2)c(NC(=O)Cn2nc(C(=O)O)cc2C(=O)N[C@H]2CCCC[C@@H]2OCc2ccccc2)c1 [Compound 34],0.05 to 0.1
11,O=C(Cn1nc(NS(=O)(=O)c2ccc(F)cc2)cc1C(=O)N[C@H]1CCCC[C@@H]1OCc1ccccc1)N[C@H]1CCCC[C@@H]1OCc1ccccc1 [Compound 35],0.05 to 0.1
12,O=C(Cn1nc(NS(=O)(=O)c2cccc(Br)c2)cc1C(=O)N[C@H]1CCCC[C@@H]1OCc1ccccc1)N[C@H]1CCCC[C@@H]1OCc1ccccc1 [Compound 36],0.05 to 0.1
13,O=C(Cn1nc(NS(=O)(=O)c2ccccc2F)cc1C(=O)N[C@H]1CCCC[C@@H]1OCc1ccccc1)N[C@H]1CCCC[C@@H]1OCc1ccccc1 [Compound 37],0.05 to 0.1
14,O=C(Cn1nc(NS(=O)(=O)c2ccc(Cl)s2)cc1C(=O)N[C@H]1CCCC[C@@H]1OCc1ccccc1)N[C@H]1CCCC[C@@H]1OCc1ccccc1 [Compound 38],0.05 to 0.1
15,O=C(Cn1nc(C(=O)O)cc1C(=O)Nc1ccccc1OCc1ccccc1)N[C@H]1CCCC[C@@H]1OCc1ccccc1 [Compound 39],0.05 to 0.1
16,COc1ccc(CNC(=O)c2cc(C(=O)N[C@H]3CCCC[C@@H]3OCc3ccccc3)n(CC(=O)N[C@H]3CCCC[C@@H]3OCc3ccccc3)n2)cc1 [Compound 40],0.05 to 0.1
17,COc1ccc(S(=O)(=O)Nc2cc(C(=O)N[C@H]3CCCC[C@@H]3OCc3ccccc3)n(CC(=O)N[C@H]3CCCC[C@@H]3OCc3ccccc3)n2)cc1 [Compound 41],0.05 to 0.1
18,N#Cc1ccc(S(=O)(=O)Nc2cc(C(=O)N[C@H]3CCCC[C@@H]3OCc3ccccc3)n(CC(=O)N[C@H]3CCCC[C@@H]3OCc3ccccc3)n2)cc1 [Compound 42],0.05 to 0.1
19,Cc1ccc(OCC2CCC2)c(NC(=O)Cn2nc(C(=O)O)cc2C(=O)N[C@H]2CCCC[C@@H]2OCc2ccccc2)c1 [Compound 43],0.05 to 0.1
20,Cc1ccc(OCc2ccccc2)c(NC(=O)c2cc(NS(=O)(=O)c3ccc(Cl)cc3)nn2CC(=O)N[C@H]2CCCC[C@@H]2OCc2ccccc2)c1 [Compound 44],0.05 to 0.1
21,CN(C)S(=O)(=O)Nc1cc(C(=O)N[C@H]2CCCC[C@@H]2OCc2ccccc2)n(CC(=O)N[C@H]2CCCC[C@@H]2OCc2ccccc2)n1 [Compound 45],0.05 to 0.1
22,O=C(Cn1nc(C(=O)NCc2ccc(Cl)cc2)cc1C(=O)N[C@H]1CCCC[C@@H]1OCc1ccccc1)N[C@H]1CCCC[C@@H]1OCc1ccccc1 [Compound 46],0.05 to 0.1
23,O=C(Cn1nc(NS(=O)(=O)c2ccc(C(F)(F)F)cc2)cc1C(=O)N[C@H]1CCCC[C@@H]1OCc1ccccc1)N[C@H]1CCCC[C@@H]1OCc1ccccc1 [Compound 47],0.05 to 0.1

# Same assay, conditions: Δ21 Activity (IC50 μM), 50 nM NS5B (Δ21), numeric values
row,Compound,IC50 [µM]
1,O=C(Cn1nc(NS(=O)(=O)c2ccc(O)c(C(=O)O)c2)cc1C(=O)N[C@H]1CCCC[C@@H]1OCc1ccccc1)N[C@H]1CCCC[C@@H]1OCc1ccccc1,0.074
2,O=C(Cn1nc(-c2nnn[nH]2)cc1C(=O)N[C@H]1CCCC[C@@H]1OCc1ccccc1)N[C@H]1CCCC[C@@H]1OCc1ccccc1,0.05
